The values that follow come from patent publication US5814622A, “Compounds derived from boronic acid” (Adir et Compagnie, priority 1996, dated 1998).

In data set [1] the test system is platelets. In words: Thrombopenic activity after oral administration to dogs. As to conditions: dog, 2.5 mg/kg. Format: in vivo.
Experimental: Male or female dogs weighing 11-28 kg are treated orally with the products of the invention (5 mg/kg) or with the reference substance, DUP 714, at a concentration of 2.5 mg/kg. […] The number of platelets is also determined in each sample using a T450 counter (Coultronics).
Under the conditions of our experiments, the number of platelets before the treatment is about 300,000 platelets/μl; the TT is about 19 seconds and the ACT is about 18 seconds.
Data set [2] relates to plasma from the dogs (TT). Briefly: TT in dogs after oral administration. As to conditions: dog. It counts as in vivo.
Experimental: (§1) Male or female dogs weighing 11-28 kg are treated orally with the products of the invention (5 mg/kg) or with the reference substance, DUP 714, at a concentration of 2.5 mg/kg. The coagulation times (TT, ACT) are determined in samples of plasma from the dogs 10 min before and 30 min, 1 hour, 2 hours, 4 hours and 6 hours after administration of the products. […] The number of platelets is also determined in each sample using a T450 counter (Coultronics).
(§2) The values show the number of times that the initial time is increased.
The subject of data set [3] is plasma from the dogs (ACT). In words: ACT in dogs after oral administration. Format: in vivo. As to conditions: dog.
Experimental: as §1, §2
Data set [4] relates to thrombin. As to conditions: literature; cited from earlier work.

As for `CC(=O)N[C@H](Cc1ccccc1)C(=O)N1CCC[C@H]1C(=O)N[C@@H](CCCNC(=N)N)B(O)O` [DUP 714, Ac-(D)Phe-Pro-Arg boronic acid, reference compound], in data set [1], the “effect on number of platelets, in words” value is “lowers the number of platelets appreciably and reversibly”. In data set [1] (1 hour), the “Thrombopenias observed 1 hour after oral administration to dogs” value came to 55% and the “fall in number of platelets” value came out at 55±14%. The “increase of TT in animals, in words” value in data set [2] is “appreciably increase”. In data set [3], the “increase of ACT in animals, in words” value was “appreciably increase”. Also, in data set [4], the “thrombin inhibition, in words” value is “thrombin inhibitor”.
